The record followed here is US8785460B2, “Tricyclic compounds and use thereof” (Takeda Pharmaceutical Company Limited, priority 2008, dated 2014).

This assay addresses T1, human CRF1 receptor (Homo sapiens, UniProt P34998).
T1 construct: expressed in transfected cells; host or cells: CHO cells (membrane fraction)
T1 sequence (P34998 24-415): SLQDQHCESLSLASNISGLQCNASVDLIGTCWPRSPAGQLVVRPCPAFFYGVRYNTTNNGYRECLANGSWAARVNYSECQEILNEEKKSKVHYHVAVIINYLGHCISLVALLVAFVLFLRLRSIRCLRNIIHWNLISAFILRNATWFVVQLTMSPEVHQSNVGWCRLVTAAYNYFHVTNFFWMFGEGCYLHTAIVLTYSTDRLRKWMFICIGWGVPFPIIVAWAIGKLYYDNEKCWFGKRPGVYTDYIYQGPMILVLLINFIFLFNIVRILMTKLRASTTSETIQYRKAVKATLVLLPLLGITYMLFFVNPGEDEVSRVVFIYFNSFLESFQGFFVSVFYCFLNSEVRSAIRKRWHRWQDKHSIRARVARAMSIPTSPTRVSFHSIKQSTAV
Kind of assay: Measurement of CRF Binding Inhibitory Rate (receptor binding experiment with 125I-CRF). To be noted: human CRF1 receptor expressing CHO cellular membrane fraction, 50 pM 125I-CRF, room temperature 1.5 hr, 0.05 nM to 10 μM of compound; read-out: IC50 values (CRF binding inhibition). On the procedure:
Measurement of CRF Binding Inhibitory Rate
A receptor binding experiment was carried out using a human CRF1 receptor expressing CHO cellular membrane fraction and ovine CRF, [^125I]-tyr^0(^125I-CRF). 1000 nM of a test compound was incubated with 1 μg of human CREF receptor expressing CHO cellular membrane fraction and 50 pM of ^125I-CRF in a binding assay buffer (50 mM Tris-HCl, 5 mM EDTA, 10 mM MgCl2, 0.05% CHAPS, 0.1% BSA, 0.5 mM PMSF, 0.1 μg/mL pepstatin, 20 μg/mL leupeptin, pH 7.5). In addition, for measuring nonspecific binding (NSB), 0.1 μM unlabelled human Urocortin was incubated with 5 μg of human CRE receptor expressing CHO cellular membrane fraction and 50 pM of ^125I-CRF in a binding assay buffer. After a binding reaction was carried out at room temperature for 1.5 hr, the membrane was entrapped on a glass filter (UniFilter plate GF-C/Perkin Elmer) by suction filtration using a cell harvester (Perkin Elmer), and washed with ice-cooled 50 mM Tris-HCl (pH 7.5). After drying the glass filter, a liquid scintillation cocktail (Microscinti 0, Perkin Elmer) was added, and the radioactivity of ^125I-CRF remaining on a glass filter was measured using Topcount (Perkin Elmer).
(TB−SB)/(TB−NSB)×100 (SB: radioactivity when a compound is added, TB: maximum binding radioactivity, NSB: nonspecific binding radioactivity) were calculated to obtain binding inhibitory rates under the range of the presence from 0.05 nM to 10 μM of each compound. The IC50 values were calculated by using GraphPad Prism software.
As a reminder, the IC50 is the concentration that gives 50% inhibition. `CC/C(=N\OC)c1ccc(Cl)c2nc3n(c12)CCCN3c1ccc(Cl)cc1Cl` [Example 121, (1E)-1-[9-Chloro-1-(2,4-dichlorophenyl)-1,2,3,4-tetrahydropyrimido[1,2-a]benzimidazol-6-yl]propan-1-one O-methyloxime]: the half-inhibitory concentration (IC50) is below 1 µM.

With `CCO/N=C(\CC)c1ccc(Cl)c2nc3n(c12)CCCN3c1ccc(Cl)cc1Cl` [Example 123, (1E)-1-[9-Chloro-1-(2,4-dichlorophenyl)-1,2,3,4-tetrahydropyrimido[1,2-a]benzimidazol-6-yl]propan-1-one O-ethyloxime], the concentration for half-maximal inhibition (IC50) is below 1 µM.

With `CCCC(O)c1ccc(Cl)c2nc3n(c12)CCCN3c1c(C)cc(Cl)cc1Cl` (stereo not drawn) [Example 140, 1-[9-Chloro-1-(2,4-dichloro-6-methylphenyl)-1,2,3,4-tetrahydropyrimido[1,2-a]benzimidazol-6-yl]butan-1-ol], the 50% inhibitory concentration (IC50) was below 1 µM.

Consider `CC(C)(C#N)c1ccc(Cl)c2nc3n(c12)CCCN3c1ccc(Cl)cc1Cl` [Example 144, 2-[9-Chloro-1-(2,4-dichlorophenyl)-1,2,3,4-tetrahydropyrimido[1,2-a]benzimidazol-6-yl]-2-methylpropanenitrile], for which the half-maximal inhibitory concentration (IC50) is below 1 µM.

Take `CCC(OC(C)=O)c1ccc(Cl)c2nc3n(c12)CCCN3c1cnc(OC)cc1C` (stereo not drawn) [Example 161, 1-[9-Chloro-1-(6-methoxy-4-methylpyridin-3-yl)-1,2,3,4-tetrahydropyrimido[1,2-a]benzimidazol-6-yl]propyl acetate]: the IC50 was below 1 µM.

Turning to `COC(=O)c1ccc(Cl)c2nc3n(c12)CCCN3c1ncc(C)nc1C` [Example 175, Methyl 9-chloro-1-(3,5-dimethylpyrazin-2-yl)-1,2,3,4-tetrahydropyrimido[1,2-a]benzimidazole-6-carboxylate], the IC50 was below 1 µM.

Regarding `CC/C(=N\OC(F)F)c1ccc(Cl)c2nc3n(c12)CCCN3c1c(Cl)cc(Cl)cc1Cl` [Example 194, (1E)-1-[9-Chloro-1-(2,4,6-trichlorophenyl)-1,2,3,4-tetrahydropyrimido[1,2-a]benzimidazol-6-yl]propan-1-one O-(difluoromethyl)oxime], the half-maximal inhibitory concentration (IC50) was below 1 µM.

On to `Clc1ccc(N2CCCn3c2nc2c(Cl)ccc(N4CCCC4)c23)c(Cl)c1` [Example 196, 9-Chloro-1-(2,4-dichlorophenyl)-6-pyrrolidin-1-yl-1,2,3,4-tetrahydropyrimido[1,2-a]benzimidazole], for which the IC50 was below 1 µM.

As for `CCC(CC)c1ccc(Cl)c2nc3n(c12)CCN3c1ncc(C(F)(F)F)cc1Cl` [Example 225, 8-Chloro-1-[3-chloro-5-(trifluoromethyl)pyridin-2-yl]-5-(1-ethylpropyl)-2,3-dihydro-1H-imidazo[1,2-a]benzimidazole], the IC50 is below 1 µM.

As to `CC(C)C(O)c1ccc(Cl)c2nc3n(c12)CCCN3c1ccc(Cl)cc1Cl` (stereo not drawn) [Example 234, 1-[9-Chloro-1-(2,4-dichlorophenyl)-1,2,3,4-tetrahydropyrimido[1,2-a]benzimidazol-6-yl]-2-methylpropan-1-ol], the IC50 is below 1 µM.

Turning to `CCC(OC(C)C)c1ccc(Cl)c2nc3n(c12)CCCN3c1ccc(Cl)cc1Cl` (stereo not drawn) [Example 237, 9-Chloro-1-(2,4-dichlorophenyl)-6-[1-(1-methylethoxy)propyl]-1,2,3,4-tetrahydropyrimido[1,2-a]benzimidazole], the IC50 is below 1 µM.

In the case of `CCC(OCCO)c1ccc(Cl)c2nc3n(c12)CCCN3c1ccc(Cl)cc1Cl` (stereo not drawn) [Example 242, 2-{1-[9-Chloro-1-(2,4-dichlorophenyl)-1,2,3,4-tetrahydropyrimido[1,2-a]benzimidazol-6-yl]propoxy}ethanol], the IC50 was below 1 µM.

For `CCC(OC(C)=O)c1ccc(Cl)c2nc3n(c12)CCCN3c1ccccc1Cl` (stereo not drawn) [Example 253, 1-[9-Chloro-1-(2-chlorophenyl)-1,2,3,4-tetrahydropyrimido[1,2-a]benzimidazol-6-yl]propyl acetate], the IC50 was below 1 µM.

For `CCC(OC(C)=O)c1ccc(Cl)c2nc3n(c12)CCCN3c1ccc(S(C)(=O)=O)cc1Cl` (stereo not drawn) [Example 254, 1-{9-Chloro-1-[2-chloro-4-(methylsulfonyl)phenyl]-1,2,3,4-tetrahydropyrimido[1,2-a]benzimidazol-6-yl}propyl acetate], the IC50 is below 1 µM.

On to `CCC(OC(C)=O)c1ccc(Cl)c2nc3n(c12)CCCN3c1ccc(C(N)=O)cc1Cl` (stereo not drawn) [Example 255, 1-[1-(4-Carbamoyl-2-chlorophenyl)-9-chloro-1,2,3,4-tetrahydropyrimido[1,2-a]benzimidazol-6-yl]propyl acetate], for which the IC50 was below 1 µM.

With `CCC(OC1CC1)c1ccc(Cl)c2nc3n(c12)CCCN3c1ccc(OC)nc1C` (stereo not drawn) [Example 271, 9-Chloro-6-[1-(cyclopropyloxy)propyl]-1-(6-methoxy-2-methylpyridin-3-yl)-1,2,3,4-tetrahydropyrimido[1,2-a]benzimidazole], the IC50 is below 1 µM.

As for `CCOc1ccc(N2CCCn3c2nc2c(Cl)ccc(C(OC(F)F)=C(F)F)c23)c(C)n1` [Example 286, 9-Chloro-6-[1-(difluoromethoxy)-2,2-difluoroethenyl]-1-(6-ethoxy-2-methylpyridin-3-yl)-1,2,3,4-tetrahydropyrimido[1,2-a]benzimidazole], the IC50 is below 1 µM.

Turning to `CCOc1ccc(N2CCCn3c2nc2c(Cl)ccc(C(OC(F)F)C(F)(F)F)c23)c(C)n1` (stereo not drawn) [Example 287, 9-Chloro-6-[1-(difluoromethoxy)-2,2,2-trifluoroethyl]-1-(6-ethoxy-2-methylpyridin-3-yl)-1,2,3,4-tetrahydropyrimido[1,2-a]benzimidazole], the half-maximal inhibitory concentration (IC50) is below 1 µM.

For `Cc1nc(OC(C)C)ccc1N1CCCn2c1nc1c(Cl)ccc(C(OC(F)F)C(F)(F)F)c12` (stereo not drawn) [Example 288, 9-Chloro-6-[1-(difluoromethoxy)-2,2,2-trifluoroethyl]-1-[2-methyl-6-(1-methylethoxy)pyridin-3-yl]-1,2,3,4-tetrahydropyrimido[1,2-a]benzimidazole], the IC50 is below 1 µM.

With `Cc1nc(C(N)=O)ccc1N1CCCn2c1nc1c(Cl)ccc(C(OC(F)F)C(F)(F)F)c12` (stereo not drawn) [Example 293, 5-{9-Chloro-6-[1-(difluoromethoxy)-2,2,2-trifluoroethyl]-3,4-dihydropyrimido[1,2-a]benzimidazol-1(2H)-yl}-6-methylpyridine-2-carboxamide], the 50% inhibitory concentration (IC50) is below 1 µM.

Regarding `CCC(c1ccc(Cl)c2nc3n(c12)CCCN3c1ccc(OC)nc1C)C(F)F` (stereo not drawn) [Example 303, 9-Chloro-6-[1-(difluoromethyl)propyl]-1-(6-methoxy-2-methylpyridin-3-yl)-1,2,3,4-tetrahydropyrimido[1,2-a]benzimidazole], the IC50 was below 1 µM.

On to `C=COC(CC)c1ccc(Cl)c2nc3n(c12)CCCN3c1ccc(Cl)cc1Cl` (stereo not drawn) [Example 305, 9-Chloro-1-(2,4-dichlorophenyl)-6-[1-(ethenyloxy)propyl]-1,2,3,4-tetrahydropyrimido[1,2-a]benzimidazole], for which the IC50 was below 1 µM.

As for `OC(c1ccc(Cl)c2nc3n(c12)CCCN3c1ccc(Cl)cc1Cl)C(F)(F)F` (stereo not drawn) [Example 307, 1-[9-Chloro-1-(2,4-dichlorophenyl)-1,2,3,4-tetrahydropyrimido[1,2-a]benzimidazol-6-yl]-2,2,2-trifluoroethanol], the IC50 was below 1 µM.

For the compound `CCC(CC#N)c1ccc(Cl)c2nc3n(c12)CCCN3c1ccc(Cl)cc1Cl` (stereo not drawn) [Example 316, 3-[9-Chloro-1-(2,4-dichlorophenyl)-1,2,3,4-tetrahydropyrimido[1,2-a]benzimidazol-6-yl]pentanenitrile], the IC50 is below 1 µM.

Take `CCC(c1ccc(Cl)c2nc3n(c12)CCCN3c1ccc(Cl)cc1Cl)C(O)C(F)(F)F` (stereo not drawn) [Example 317, 3-[9-chloro-1-(2,4-dichlorophenyl)-1,2,3,4-tetrahydropyrimido[1,2-a]benzimidazol-6-yl]-1,1,1-trifluoropentan-2-ol]: the half-maximal inhibitory concentration (IC50) was below 1 µM.

For the compound `CCC(C(=O)C(F)(F)F)c1ccc(Cl)c2nc3n(c12)CCCN3c1ccc(Cl)cc1Cl` (stereo not drawn) [Example 318], the IC50 is below 1 µM.

As for `COC(=O)c1ccc(Cl)c2nc3n(c12)CCCCN3c1ccc(OC)cc1Cl` [Example 330, Methyl 10-chloro-1-(2-chloro-4-methoxyphenyl)-2,3,4,5-tetrahydro-1H-[1,3]diazepino[1,2-a]benzimidazole-7-carboxylate], the IC50 was below 1 µM.
